From patent US7238689B2, “Isoxazoline derivative and herbicide comprising the same as active ingredient” (Ihara Chemical Industry Co., Ltd., priority 2001, dated 2007) come the findings set out here.

SMILES strings stand for the structures.

In data set [1] the test system is Setaria viridis (L.) Beauv. In words: Herbicidal effect by upland foliage treatment. Details: scale not given here. The following applies: active ingredient 1000 g/ha, examined at 14th day from treatment. The class given is in vivo. In a few lines:
(§1)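 Two-week-old greenhouse plants in sand were sprayed over the whole foliage with water-diluted wettable powder at 1,000 liters per hectare, giving 1,000 g active ingredient per hectare. Herbicidal effect scored on a rating standard at day 14 after treatment.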

Data set [2] deals with Echinochloa crus-galli (L.) Beauv. var. crus-galli. In words: Herbicidal effect by upland foliage treatment. The class given is in vivo. Set-up: scale not given here. As to conditions: active ingredient 1000 g/ha, examined at 14th day from treatment. An outline of the steps: as §1
Data set [3] relates to Setaria viridis (L.) Beauv. The data set is described as follows: Herbicidal effect by upland field soil treatment. Details: scale not given here. The class given is in vivo. As to conditions: active ingredient 1000 g/ha, examined at 21st day from treatment. An excerpt: (§2) An upland field soil was filled in a plastic pot of 80 cm^2. Seeds of Echinochloa crus-galli (L.) Beauv. var. crusgalli and Setaria viridis (L.) Beauv. were sowed, followed by covering with the same soil. […] Then, breeding was made in a greenhouse, and the herbicidal effect of each wettable powder was examined at the 21st day from the treatment in accordance with the standard shown in Table 21.

Data set [4] deals with Echinochloa crus-galli (L.) Beauv. var. crusgalli. The data set is described as follows: Herbicidal effect by upland field soil treatment. The class given is in vivo. Set-up: scale not given here. As to conditions: active ingredient 1000 g/ha, examined at 21st day from treatment.
Excerpt: as §2

For data set [5], the system named is Echinochloa oryzicola Vasing. The data set is described as follows: Herbicidal effect by paddy field soil treatment. The class given is in vivo. As to conditions: wettable powder, active ingredient 1000 g/ha, examined at the 21st day from the treatment. Set-up: scale not given here. An outline of the steps:
(§3)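 Seeds sown in puddled paddy soil under 3 cm of water; the next day wettable powders diluted in water were dropped onto the water surface at 1,000 g active ingredient/ha. Plants grown in a greenhouse, with herbicidal effect scored on day 21 against a rating standard.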

For data set [6], the system named is Monochoria vaginalis (Murm. f.) Presl var. plantaginea (Roxb.) Solms-Laub. The data set is described as follows: Herbicidal effect by paddy field soil treatment. The following applies: wettable powder, active ingredient 1000 g/ha, examined at the 21st day from the treatment. The format is in vivo. Details: scale not given here. An outline of the steps: as §3

For orientation: melting point means the temperature, or range, at which the solid turns liquid. Molecule `CC1(C)CC(S(=O)(=O)Cc2c(C(F)(F)F)nn(C(F)F)c2Cl)=NO1` [3-0010, 3-(5-chloro-1-difluoromethyl-3-trifluoromethyl-1H-pyrazol-4-ylmethylsulfonyl)-5,5-dimethyl-2-isoxazoline] showed a melting point of 126 to 127 °C. Moreover, the “herbicidal effect (index per standard of Table 21), Setaria viridis (L.) Beauv.” value in data set [1] turned out to be 4. Further, the “herbicidal effect (index per standard of Table 21), Echinochloa curs-galli (L.) Beauv. Var. crus-galli” value in data set [2] is 5.

`Cn1nc(C(F)(F)F)c(CS(=O)(=O)C2=NOC(C)(C)C2)c1OC1CCCC1` [3-0015, 3-(5-cyclopentyloxy-1-methyl-3-trifluoromethyl-1H-pyrazol-4-ylmethylsulfonyl)-5,5-dimethyl-2-isoxazoline] returned a melting point of 113 to 114 °C. In addition, the “herbicidal effect (index per standard of Table 21), Setaria viridis (L.) Beauv.” value in data set [3] stood at 5. The “herbicidal effect (index per standard of Table 21), Echinochloa curs-galli (L.) Beauv. Var. crus-galli” value in data set [4] was found to be 5. Besides, the “herbicidal effect (index per standard of Table 21), Setaria viridis (L.) Beauv.” value in data set [1] is reported as 4. For the same molecule, the “herbicidal effect (index per standard of Table 21), Echinochloa curs-galli (L.) Beauv. Var. crus-galli” value in data set [2] was determined as 5. Also, the “Herbicidal effect index, Echinochloa oryzicola Vasing” value in data set [5] is recorded as 5. Moreover, the “Herbicidal effect index, Monochoria vaginalis (Burm. F.) Presl var. plantaginea (Roxb.) Solms-Laub.” value (“Herbicidal effect index … (Roxb.) Solms-Laub.” for short) in data set [6] stood at 5.

`Cn1nc(C(F)(F)F)c(CS(=O)(=O)C2=NOC(C)(C)C2)c1C#N` [3-0016, 3-(5-cyano-1-methyl-3-trifluoromethyl-1H-pyrazol-4-ylmethylsulfonyl)-5,5-dimethyl-2-isoxazoline] came in with a melting point of 105 to 108 °C. Besides, the “herbicidal effect (index per standard of Table 21), Setaria viridis (L.) Beauv.” value in data set [3] is reported as 5. Besides, the “herbicidal effect (index per standard of Table 21), Echinochloa curs-galli (L.) Beauv. Var. crus-galli” value in data set [4] worked out at 5. Further, the “Herbicidal effect index, Echinochloa oryzicola Vasing” value in data set [5] was determined as 5. The “Herbicidal effect index … (Roxb.) Solms-Laub.” value in data set [6] turned out to be 5.

In turn, `CC1(C)CC(SCc2c(C(F)(F)F)nn(C(F)F)c2Cl)=NO1` [3-0008, 3-(5-chloro-1-difluoromethyl-3-trifluoromethyl-1H-pyrazol-4-ylmethylthio)-5,5-dimethyl-2-isoxazoline] came in with a melting point of 41 to 42 °C. The “herbicidal effect (index per standard of Table 21), Setaria viridis (L.) Beauv.” value in data set [3] was 5. For the same molecule, the “herbicidal effect (index per standard of Table 21), Echinochloa curs-galli (L.) Beauv. Var. crus-galli” value in data set [4] is 5. The “herbicidal effect (index per standard of Table 21), Setaria viridis (L.) Beauv.” value in data set [1] was 4. Also, the “herbicidal effect (index per standard of Table 21), Echinochloa curs-galli (L.) Beauv. Var. crus-galli” value in data set [2] was 4.

`CC1(C)CC(S(=O)(=O)Cc2c(Cl)nn(C(F)F)c2C(F)(F)F)=NO1` [3-0011, 3-(3-chloro-1-difluoromethyl-5-trifluoromethyl-1H-pyrazol-4-ylmethylsulfonyl)-5,5-dimethyl-2-isoxazoline]: the melting point lay within 136 to 137 °C. For the same molecule, the “herbicidal effect (index per standard of Table 21), Setaria viridis (L.) Beauv.” value in data set [1] came to 4. Also, the “herbicidal effect (index per standard of Table 21), Echinochloa curs-galli (L.) Beauv. Var. crus-galli” value in data set [2] worked out at 5.

With `CON=C(C)c1c(C)sc(C)c1CS(=O)(=O)C1=NOC(C)(C)C1` [2-0001, 5,5-dimethyl-3-[2,5-dimethyl-4-(1-methoxyiminoethyl)-thiophen-3-ylmethylsulfonyl]-2-isoxazoline], the melting point lay in the range of 95 to 96 °C. Further, the “herbicidal effect (index per standard of Table 21), Setaria viridis (L.) Beauv.” value in data set [3] is on record as 5. Moreover, the “herbicidal effect (index per standard of Table 21), Echinochloa curs-galli (L.) Beauv. Var. crus-galli” value in data set [4] is given as 5. In addition, the “herbicidal effect (index per standard of Table 21), Setaria viridis (L.) Beauv.” value in data set [1] came to 4. Moreover, the “herbicidal effect (index per standard of Table 21), Echinochloa curs-galli (L.) Beauv. Var. crus-galli” value in data set [2] is 5. Besides, the “Herbicidal effect index, Echinochloa oryzicola Vasing” value in data set [5] was 5. Further, the “Herbicidal effect index … (Roxb.) Solms-Laub.” value in data set [6] was found to be 5.

Molecule `COc1c(CS(=O)(=O)C2=NOC(C)(C)C2)c(C(F)(F)F)nn1C` [3-0013, 5,5-dimethyl-3-(5-methoxy-1-methyl-3-trifluoromethyl-1H-pyrazol-4-ylmethylsulfonyl)-2-isoxazoline] gave a melting point of 113 to 114 °C. In data set [3], the “herbicidal effect (index per standard of Table 21), Setaria viridis (L.) Beauv.” value is recorded as 5. Besides, the “herbicidal effect (index per standard of Table 21), Echinochloa curs-galli (L.) Beauv. Var. crus-galli” value in data set [4] stood at 5. In data set [1], the “herbicidal effect (index per standard of Table 21), Setaria viridis (L.) Beauv.” value amounted to 5. Besides, in data set [2], the “herbicidal effect (index per standard of Table 21), Echinochloa curs-galli (L.) Beauv. Var. crus-galli” value was determined as 5. Besides, in data set [5], the “Herbicidal effect index, Echinochloa oryzicola Vasing” value turned out to be 5. Further, the “Herbicidal effect index … (Roxb.) Solms-Laub.” value in data set [6] is recorded as 5.
